According to PubChem BioAssay (NCI):
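Cultured in 96-well plates, cells were exposed to test compound for 48 hours across five concentrations. TGI: total growth inhibition.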

These molecules were tested on NCI-H522 lung (assay: DTP human tumour cell line panel, 48 h).

Row | Compound | TGI
1 | O=C(CCc1ccc(O)c(O)c1)NCCc1cc(O)cc(O)c1 | > 100 µM
2 | Cc1nn(C(=O)c2ccc(Cl)cc2)c2c1C(c1ccccc1[N+](=O)[O-])SC(N)=N2 (stereo not drawn) | > 10 µM
3 | C=CCc1cccc2cc(C(=O)Nc3ccccc3)c(=N)oc12 | > 100 µM

Each molecule was assayed on SK-MEL-28 melanoma (assay: DTP human tumour cell line panel, 48 h).

Row | Compound | TGI
4 | CN(C)C(=S)/N=c1\ssc(=S)n1Cc1ccccc1 | > 63.1 µM
5 | CCOC(=O)c1nc2ccccc2nc1NCc1cc(OC)c(OC)c(OC)c1 | > 100 µM
6 | C[C@H](NC(=O)c1ccc(CNC(=O)/C=C/c2cccc(Oc3ccccc3)c2)cc1)c1ccccc1 | > 100 µM
7 | CCN(CC)/C(Sc1ccccc1)=C(\C(Cl)=C(Cl)Cl)[N+](=O)[O-] | 32 µM
8 | Brc1cc(CCOC2CCCCO2)c(-c2sccc2CCOC2CCCCO2)s1 (stereo not drawn) | > 100 µM
9 | CC(C)=CCC/C(=C/CC/C(=C\CCc1ccoc1)C(=O)O)C(=O)O | > 100 µM
10 | CCCCc1ccc(Nc2nc(SC)c3[nH]cnc3n2)cc1 | > 100 µM
11 | Cc1cccc(CP(Cc2cccc(C)c2)CC2(Cp3c4ccccc4c4ccccc43)COC2)c1 | > 100 µM
12 | COc1cc(OC)nc(-n2c(N)c(C#N)c3ccc([N+](=O)[O-])cc3c2=O)n1 | > 100 µM
13 | COC(=O)c1sc(=S)sc1SCc1ccc(CSc2sc(=S)sc2C(=O)OC)cc1 | > 100 µM
14 | CCOC(=O)c1cn2c(n1)sc1c(Cl)c(Cl)ccc12 | > 100 µM
15 | CN1CCN(c2ncc3c(n2)sc2c(=O)n(-c4ccccc4)cnc23)CC1 | > 100 µM
16 | COc1ccc(C(=O)c2sc(Nc3ccc(Cl)cc3)nc2N)cc1 | > 100 µM
17 | Cc1cn(C2CC(O)C(COC(=O)NCCC(F)(F)C(F)(F)C(F)(F)C(F)(F)F)O2)c(=O)[nH]c1=O (stereo not drawn) | > 100 µM
18 | CC(C)(C)OC(=O)N1CCC(C(=O)O)CC1 | > 100 µM
19 | C/C=C\C(CC(=O)NCCC1CN(S(=O)(=O)c2ccc(C)cc2)c2ccccc21)CC(=O)OC (stereo not drawn) | > 100 µM
20 | CN(C)CCN(C)c1ccc2c(=O)n(CCN(C)C)c(=O)n3c4ccccc4c(=O)c1c23 | 6.81 µM
21 | O=C(CCc1ccc(O)c(O)c1)NCCc1cc(O)cc(O)c1 | > 100 µM
22 | C=CCc1cccc2cc(C(=O)Nc3ccccc3)c(=N)oc12 | > 100 µM

What follows are molecules tested on SNB-19 CNS (assay: DTP human tumour cell line panel, 48 h).

Row | Compound | TGI
23 | CN(C)C(=S)/N=c1\ssc(=S)n1Cc1ccccc1 | > 56.2 µM
24 | Cn1c(O)c(C=Nc2ccccc2[N+](=O)[O-])c(=O)n(C)c1=O | > 100 µM
25 | COc1cc(-c2cc(-c3ccccc3)nc(-c3c(OC)ccc4c(C)cc(=O)oc34)c2)cc(OC)c1OC | > 100 µM
26 | C[C@H](NC(=O)c1ccc(CNC(=O)/C=C/c2cccc(Oc3ccccc3)c2)cc1)c1ccccc1 | > 100 µM
27 | CCN(CC)/C(Sc1ccccc1)=C(\C(Cl)=C(Cl)Cl)[N+](=O)[O-] | 49.9 µM
28 | Brc1cc(CCOC2CCCCO2)c(-c2sccc2CCOC2CCCCO2)s1 (stereo not drawn) | > 100 µM
29 | CC(C)=CCC/C(=C/CC/C(=C\CCc1ccoc1)C(=O)O)C(=O)O | > 100 µM
30 | CCCCc1ccc(Nc2nc(SC)c3[nH]cnc3n2)cc1 | > 100 µM
31 | Cc1cccc(CP(Cc2cccc(C)c2)CC2(Cp3c4ccccc4c4ccccc43)COC2)c1 | > 31.6 µM
32 | COc1cc(OC)nc(-n2c(N)c(C#N)c3ccc([N+](=O)[O-])cc3c2=O)n1 | > 100 µM
33 | COC(=O)c1sc(=S)sc1SCc1ccc(CSc2sc(=S)sc2C(=O)OC)cc1 | > 100 µM
34 | CCOC(=O)c1cn2c(n1)sc1c(Cl)c(Cl)ccc12 | 98.9 µM
35 | CN1CCN(c2ncc3c(n2)sc2c(=O)n(-c4ccccc4)cnc23)CC1 | > 100 µM
36 | COc1ccc(C(=O)c2sc(Nc3ccc(Cl)cc3)nc2N)cc1 | > 69.9 µM
37 | Cc1cn(C2CC(O)C(COC(=O)NCCC(F)(F)C(F)(F)C(F)(F)C(F)(F)F)O2)c(=O)[nH]c1=O (stereo not drawn) | > 100 µM
38 | CC(C)(C)OC(=O)N1CCC(C(=O)O)CC1 | > 100 µM
39 | C/C=C\C(CC(=O)NCCC1CN(S(=O)(=O)c2ccc(C)cc2)c2ccccc21)CC(=O)OC (stereo not drawn) | > 100 µM
40 | CN(C)CCN(C)c1ccc2c(=O)n(CCN(C)C)c(=O)n3c4ccccc4c(=O)c1c23 | 9.7 µM
41 | O=C(CCc1ccc(O)c(O)c1)NCCc1cc(O)cc(O)c1 | > 100 µM
42 | Cc1nn(C(=O)c2ccc(Cl)cc2)c2c1C(c1ccccc1[N+](=O)[O-])SC(N)=N2 (stereo not drawn) | > 10 µM
43 | C=CCc1cccc2cc(C(=O)Nc3ccccc3)c(=N)oc12 | > 100 µM
